Experiment: Odor threshold concentration (Log T / Log ODT) by gas chromatograph sniff port with panelists
Design: species or system human
Description: “High impact perfume raw materials” should be understood as perfume raw materials having a Log T<−4. The odor threshold concentration of a chemical compound is determined in part by its shape, polarity, partial charges and molecular mass. For convenience, the threshold concentration is presented as the common logarithm of the threshold concentration, i.e., Log [Threshold] (“Log T”).
The odor threshold concentration of a perfuming compound is determined by using a gas chromatograph (“GC”). Specifically, the gas chromatograph is calibrated to determine the exact volume of the perfume oil ingredient injected by the syringe, the precise split ratio, and the hydrocarbon response using a hydrocarbon standard of known concentration and chain-length distribution. The air flow rate is accurately measured and, assuming the duration of a human inhalation to last 12 seconds, the sampled volume is calculated. […] To determine the threshold concentration, solutions are delivered to the sniff port at the back-calculated concentration. A panelist sniffs the GC effluent and identifies the retention time when odor is noticed. The average across all panelists determines the odor threshold concentration of the perfuming compound. The determination of odor threshold is described in more detail in C.

[1] = ingredient of Perfume oil B (Table 3)
[2] = ingredient of Perfume oil C (Table 5)
[3] = ingredient of Perfume oil D (Table 7)
[4] = ingredient of Perfume oil A (Table 1)

Compound | Log ODT [1] | Log ODT [2] | Log ODT [3] | Log ODT [4]
10-UNDECENAL (A) + (9E)-9-UNDECENAL (B) + (9Z)-9-UNDECENAL (C) | <−4 | <−4 |  | 
COCCc1ccccc1 [(2-METHOXYETHYL)BENZENE] | >−4 |  |  | 
CC1=CC2CC(C=O)C1CC2C(C)C (centres unmarked) [8-ISOPROPYL-6-METHYL-BICYCLO[2.2.2]OCT-5-ENE-2-CARBALDEHYDE] | <−4 |  | <−4 | 
CCCCCCCCCC(C)=O [Capsule 2-UNDECANONE, 2-UNDECANONE] | >−4 |  |  | 
CC12CCC(CC1)C(C)(C)O2 | >−4 | >−4 | >−4 | 
CCCCCCOC(C)=O [HEXYL ACETATE] |  |  |  | >−4
CCOC(=O)C(C)CC (racemic) [(+−)-ETHYL 2-METHYLBUTANOATE] |  |  |  | >−4
(1RS,2RS)-2,4-DIMETHYL-3-CYCLOHEXENE-1-CARBALDEHYDE (A) + (1RS,2SR)-2,4-DIMETHYL-3-CYCLOHEXENE-1-CARBALDEHYDE (B) |  | >−4 |  | >−4
CC(=O)OCCc1ccccc1 [2-PHENYLETHYL ACETATE] |  |  |  | >−4
3,7-DIMETHYL-2,6-NONADIENENITRILE (A) + 3,7-DIMETHYL-3,6-NONADIENENITRILE (B) |  | >−4 |  | 
CCCCCCOC(=O)c1ccccc1O [HEXYL 2-HYDROXYBENZOATE] |  |  |  | >−4
CC1(C)CC=C(CCC=O)CC1 |  |  |  | >−4
(+−)-(3E)-3-METHYL-4-(2,6,6-TRIMETHYL-2-CYCLOHEXEN-1-YL)-3-BUTEN-2-ONE (A) + (+−)-(1E)-1-(2,6,6-TRIMETHYL-2-CYCLOHEXEN-1-YL)-1-PENTEN-3-ONE (B) |  | <−4 |  | 
CC1=CCC(C(C)(C)S)CC1 (racemic) [(+−)-2-(4-METHYL-3-CYCLOHEXEN-1-YL)-2-PROPANETHIOL] | <−4 | <−4 |  | 
TRICYCLO[5.2.1.0~2,6~]DEC-3-EN-8-YL ACETATE (A) + TRICYCLO[5.2.1.0~2,6~]DEC-4-EN-8-YL ACETATE (B) | >−4 |  |  | >−4
CCCCCCCCCC=O [DECANAL] |  |  | >−4 | 
C/C=C/C(=O)[C@@H]1[C@@H](C)C=CCC1(C)C (racemic) | <−4 |  |  | <−4
3-(4-ETHYLPHENYL)-2,2-DIMETHYLPROPANAL (A) + 3-(2-ETHYLPHENYL)-2,2-DIMETHYLPROPANAL (B) | >−4 |  |  | 
CC(C)c1cccc(C(C)CC=O)c1 (racemic) [(+−)-3-(3-ISOPROPYL-1-PHENYL)BUTANAL] | <−4 |  |  | 
CCCCCCCC1CCC(=O)O1 (racemic) [(+−)-5-HEPTYLDIHYDRO-2(3H)-FURANONE] |  | <−4 |  | 
CC/C=C(\C)C(O)CCCCC (racemic) [(+−)-(E)-4-METHYL-3-DECEN-5-OL] | >−4 |  |  | >−4
(+−)-4-METHYLENE-2-PHENYLTETRAHYDRO-2H-PYRAN (A) + (+−)-4-METHYL-6-PHENYL-3,6-DIHYDRO-2H-PYRAN (B) + (+−)-4-METHYL-2-PHENYL-3,6-DIHYDRO-2H-PYRAN (C) | <−4 |  | <−4 | 
O=C1CCCCCCCCCCCCCCO1 [OXACYCLOHEXADECAN-2-ONE] |  | >−4 |  | 
CCCCC[C@H]1C(=O)CC[C@@H]1CC(=O)OC (racemic) [METHYL 2-((1RS,2RS)-3-OXO-2-PENTYLCYCLOPENTYL)ACETATE] |  | >−4 |  | >−4
CC/C=C\CCOC(C)=O [(Z)-3-HEXENYL ACETATE] |  | >−4 |  | 

Compound | Log ODT [1] | Log ODT [2] | Log ODT [3] | Log ODT [4]
1-OXA-12-CYCLOHEXADECEN-2-ONE (A) + 1-OXA-13-CYCLOHEXADECEN-2-ONE (B) |  | >−4 |  | 
C=CCCC(=O)C1=CCCC(C)(C)C1 | <−4 | <−4 |  | 
c1ccc(Oc2ccccc2)cc1 [1,1′-OXYDIBENZENE] |  |  |  | >−4
COc1nccnc1CCCC(C)C | <−4 |  |  | 
3,5,6-TRIMETHYL-3-CYCLOHEXENE-1-CARBALDEHYDE (A) + 2,4,6-TRIMETHYL-3-CYCLOHEXENE-1-CARBALDEHYDE (B) |  | >−4 |  | 
CC1=CCC2C[C@@H]1C2(C)C (single isomer, unassigned; (-)) |  | >−4 |  | 
COc1ccc2ccccc2c1 [2-METHOXYNAPHTHALENE] |  | <−4 | <−4 | 
CC/C=C\CCOC(=O)C(C)C [(Z)-3-HEXENYL ISOBUTYRATE] |  | >−4 |  | 
(+)-(3S)-3-[(1R)-4-METHYL-3-CYCLOHEXEN-1-YL]BUTANAL (A) + (+)-(3R)-3-[(1R)-4-METHYL-3-CYCLOHEXEN-1-YL]BUTANAL |  |  | >−4 | 
CC(=O)O[C@@H]1CC2CC[C@]1(C)C2(C)C [(1R,2R)-1,7,7-TRIMETHYL-BICYCLO[2.2.1]HEPT-2-YL ACETATE] |  | >−4 | >−4 | 
COc1ccc(C)cc1 [1-METHOXY-4-METHYLBENZENE] |  |  |  | >−4
(2RS,4SR)-4-METHYL-2-(2-METHYL-1-PROPEN-1-YL)TETRAHYDRO-2H-PYRAN (A) + (2RS,4RS)-4-METHYL-2-(2-METHYL-1-PROPEN-1-YL)TETRAHYDRO-2H-PYRAN (B) | >−4 |  |  | >−4
CCCCCCCCCC(C)C=O (racemic) [(+−)-2-METHYLUNDECANAL] | <−4 | <−4 | <−4 | <−4
CC(=O)/C=C/C1=C(C)CCCC1(C)C |  |  |  | <−4
C=CC(C)CCCC(C)(C)O (racemic) |  |  |  | >−4
2-METHYLBUTYL SALICYLATE (A) + PENTYL SALICYLATE (B) |  |  |  | >−4
CCCCCCCC=O [OCTANAL] |  |  | >−4 | 
CC(C)CCCC(C)CCO (racemic) | >−4 |  |  | 
(2Z)-1,1-DIETHOXY-3,7-DIMETHYL-2,6-OCTADIENE (A) + (2E)-1,1-DIETHOXY-3,7-DIMETHYL-2,6-OCTADIENE (B) | >−4 |  | >−4 | 
.ALPHA.-DIHYDROTERPINEOL (A) + BETA.-DIHYDROTERPINEOL (B) | >−4 |  |  | 
CC(C)=CCCC(C)C=O (racemic) | >−4 |  |  | >−4
C=CC(C)(CCC=C(C)C)OC(C)=O (racemic) [(+−)-1,5-DIMETHYL-1-VINYL-4-HEXENYL ACETATE] |  | >−4 |  | >−4
CC(=O)OCCC(C)CCC=C(C)C (centres unmarked) [37-DIMETHYL-6-OCTENYL ACETATE] |  | >−4 |  | 
CC1(C)CCC[C@]2(C)[C@H]3CCO[C@]3(C)CC[C@@H]12 [(−)-(3AR,5AS,9AS,9BR)-3A,6,6,9A-TETRAMETHYLDODECAHYDRONAPHTHO[2,1-B]FURAN] | <−4 |  | <−4 | 
